Bridge positions count the residues as written; N and C are the ends. Ends that are not written are not given here. COCH2 = acetyl group that carries the bridge
Tested on: Recombinant Human FGFR1 alpha (IIIc) Fc Chimera Protein
Test: Binding affinity of enzymatically synthesized cyclic peptide to FGFR by ELISA
Conditions: luminescence signal at reaction concentration 10 nmol/L, SEQ ID NO: 39 standardized to 1, enzyme synthesis product
Experimental: The binding affinity of the cyclic peptide to FGFR was evaluated using an ELISA method.
The binding affinity of the enzymatically synthesized cyclic peptide to FGFR was measured by evaluating the amount of the cyclic peptide bound to FGFR by ELISA.
First, 5 ng of Recombinant Human FGFR1 alpha (IIIc) Fc Chimera Protein CF (R&D systems, 658-FR-050) was immobilized in each well of a 96-well plate, and blocked with Pierce Protein-Free (PBS) Blocking Buffer (Thermo, 37572), and a cyclic peptide diluted with Can Get Signal Immunoreaction Enhancer Solution I (TOYOBO, NKB-101) was then added and reacted at room temperature for 3 hours. After washing with 0.05% Tween 20-containing phosphate buffered saline (PBS), an anti-Myc antibody (Cell Signaling, 14038S) diluted with Can Get Signal Immunoreaction Enhancer Solution II (TOYOBO, NKB-101) was added and reacted at room temperature for 2 hours. After washing with 0.05% Tween 20-containing PBS, SuperSignal ELISA Femto Substrate (Thermo, 37075) was added, and the luminescence amount was measured. The dose-response relationship was calculated from using the difference between the luminescence amount in the well in which FGFR was immobilized and the luminescence amount in the well in which FGFR was not immobilized, and the concentration of the cyclic peptide at the time of reaction, and the binding affinity to FGFR was evaluated according to the following evaluation criteria. The evaluation result preferably satisfies the evaluation criteria A, B, or C.
In a case where a value of a luminescence signal emitted by the cyclic peptide set forth in SEQ ID NO: 39 at a reaction concentration of 10 nmol/L is standardized to 1, evaluation criteria of the luminescence signal value emitted by the cyclic peptide at a reaction concentration of 10 nmol/L is as follows. • A: 0.7 or more • B: 0.5 or more and less than 0.7 • C: 0.1 or more and less than 0.5 • D: less than 0.1.

Row | Evaluation result of binding affinity to FGFR | Substance
1 | B (0.5 or more and less than 0.7) | 172 (HCSYERLQFSGHEAPFRVK(COCH2)V; thioether 2-19 (inferred)) [compound 172]
2 | B (0.5 or more and less than 0.7) | 224 (HK(COCH2)SYERLQFHGHEAPFRVCV; thioether 2-19 (inferred)) [compound 224]
3 | C (0.1 or more and less than 0.5) | 316 (HCTWERLVFLGHIAPFWVK(COCH2)R; thioether 2-19 (inferred)) [compound 316]
4 | A (0.7 or more) | 203 (HCSYERLQFHGHEAPFRIK(COCH2)V; thioether 2-19 via Ac; not fully specified) [compound 203]
5 | C (0.1 or more and less than 0.5) | 359 (WCPWGDIHVVPFHK(COCH2)V; thioether 2-14) [compound 359]
6 | C (0.1 or more and less than 0.5) | 113 (HCSYERLQFHGHEGPFRVK(COCH2)V; thioether 2-19 (inferred)) [compound 113]
7 | A (0.7 or more) | 44 (FCPHIFLGHNAPFLVQK(COCH2)V; thioether 2-17 (inferred)) [compound 44]
8 | B (0.5 or more and less than 0.7) | 162 (HCSYERLQWHGHEAPFRVK(COCH2)V; thioether 2-19 (inferred)) [compound 162]
9 | A (0.7 or more) | 77 (SCSYERLQFHGHEAPFRVK(COCH2)V; thioether 2-19 (inferred)) [compound 77]
10 | A (0.7 or more) | 138 (HCSYEVLQFHGHEAPFRVK(COCH2)V; thioether 2-19 (inferred)) [compound 138]
11 | C (0.1 or more and less than 0.5) | 351 (WCWQAPFNIVVNRKVSVLIVK(COCH2)G; thioether 2-21) [compound 351]
12 | A (0.7 or more) | 217 (HCSYERLQFHGHEAPFRVK(COCH2)Q; thioether 2-19 via Ac; not fully specified) [compound 217]
13 | A (0.7 or more) | 197 (HCSYERLQFHGHEAPFNVK(COCH2)V; thioether 2-19 via Ac) [compound 197]
14 | A (0.7 or more) | 196 (HCSYERLQFHGHEAPFWVK(COCH2)V; thioether 2-19 via Ac) [compound 196]
15 | C (0.1 or more and less than 0.5) | 318 (HCTWERLIFRGHIAPFWVK(COCH2)R; thioether 2-19 (inferred)) [compound 318]
16 | C (0.1 or more and less than 0.5) | 255 (RCWRQIRYGQLLAPFLVK(COCH2)Q; thioether 2-18 (inferred)) [compound 255]
17 | C (0.1 or more and less than 0.5) | 350 (LCSITRIQLFGYHAPFWHVVK(COCH2)S; thioether 2-21) [compound 350]
18 | B (0.5 or more and less than 0.7) | 123 (HCSYIRLQFHGHEAPFRVK(COCH2)V; thioether 2-19 (inferred)) [compound 123]
19 | A (0.7 or more) | 258 (ECYHKLIFLGWEAPFWHK(COCH2)E; thioether 2-18 (inferred)) [compound 258]
20 | C (0.1 or more and less than 0.5) | 141 (HCSYEHLQFHGHEAPFRVK(COCH2)V; thioether 2-19 (inferred)) [compound 141]
21 | B (0.5 or more and less than 0.7) | 325 (HCTWERLIFLGHIAPFWVK(COCH2)S; thioether 2-19 (inferred)) [compound 325]
22 | B (0.5 or more and less than 0.7) | 174 (HCSYERLQFEGHEAPFRVK(COCH2)V; thioether 2-19 (inferred)) [compound 174]
23 | C (0.1 or more and less than 0.5) | 63 (HCSYERLQFHGHEAAFRVK(COCH2)V; thioether 2-19 (inferred)) [compound 63]
24 | A (0.7 or more) | 193 (HCSYERLQFHGHEAPFVVK(COCH2)V; thioether 2-19 via Ac) [compound 193]

Row | Evaluation result of binding affinity to FGFR | Substance
25 | A (0.7 or more) | 148 (HCSYERLVFHGHEAPFRVK(COCH2)V; thioether 2-19 (inferred)) [compound 148]
26 | B (0.5 or more and less than 0.7) | 205 (HCSYERLQFHGHEAPFRYK(COCH2)V; thioether 2-19 via Ac; not fully specified) [compound 205]
27 | C (0.1 or more and less than 0.5) | 257 (VCPLTLQGWQAPFWVVK(COCH2)E; thioether 2-17 (inferred)) [compound 257]
28 | A (0.7 or more) | 294 (HCSYERLQFHGHEAPFRVK(COCH2)K; thioether 2-19 (inferred)) [compound 294]
29 | B (0.5 or more and less than 0.7) | 226 (HK(COCH2)TWERLIFLGHIAPFWVCR; thioether 2-19 (inferred)) [compound 226]
30 | A (0.7 or more) | 194 (HCSYERLQFHGHEAPFFVK(COCH2)V; thioether 2-19 via Ac) [compound 194]
31 | C (0.1 or more and less than 0.5) | 204 (HCSYERLQFHGHEAPFRFK(COCH2)V; thioether 2-19 via Ac; not fully specified) [compound 204]
32 | B (0.5 or more and less than 0.7) | 60 (HCSYERLAFHGHEAPFRVK(COCH2)V; thioether 2-19 (inferred)) [compound 60]
33 | C (0.1 or more and less than 0.5) | 291 (HCSYERLQFHGHEAKFRVK(COCH2)V; thioether 2-19 (inferred)) [compound 291]
34 | A (0.7 or more) | 72 (FCSYERLQFHGHEAPFRVK(COCH2)V; thioether 2-19 (inferred)) [compound 72]
35 | A (0.7 or more) | 166 (HCSYERLQFVGHEAPFRVK(COCH2)V; thioether 2-19 (inferred)) [compound 166]
36 | A (0.7 or more) | 81 (RCSYERLQFHGHEAPFRVKV; not fully specified; Description of Artificial Sequence: Cyclic peptide) [compound 81]
37 | C (0.1 or more and less than 0.5) | 206 (HCSYERLQFHGHEAPFRNK(COCH2)V; thioether 2-19 via Ac; not fully specified) [compound 206]
38 | A (0.7 or more) | 296 (HCMYERLQFHGHEAPFRVK(COCH2)V; thioether 2-19 (inferred)) [compound 296]
39 | A (0.7 or more) | 201 (HCSYERLQFHGHEAPFHVK(COCH2)V; thioether 2-19 via Ac; not fully specified) [compound 201]
40 | B (0.5 or more and less than 0.7) | 126 (HCSYYRLQFHGHEAPFRVK(COCH2)V; thioether 2-19 (inferred)) [compound 126]
41 | C (0.1 or more and less than 0.5) | 366 (HCQFNIHPWGAPFLVK(COCH2)E; thioether 2-16) [compound 366]
42 | A (0.7 or more) | 264 (ACQWGRWALQGHQVPFLTK(COCH2)I; thioether 2-19 (inferred)) [compound 264]
43 | A (0.7 or more) | 68 (PCSYERLQFHGHEAPFRVK(COCH2)V; thioether 2-19 (inferred)) [compound 68]
44 | B (0.5 or more and less than 0.7) | 248 (QCWKRVRVYGFFAPFVHK(COCH2)I; thioether 2-18 (inferred)) [compound 248]
45 | C (0.1 or more and less than 0.5) | 261 (QCQWNIYRHQWAPFWVIEK(COCH2)S; thioether 2-19 (inferred)) [compound 261]
46 | A (0.7 or more) | 287 (HCSYERLKFHGHEAPFRVK(COCH2)V; thioether 2-19 (inferred)) [compound 287]
47 | A (0.7 or more) | 129 (HCSYQRLQFHGHEAPFRVK(COCH2)V; thioether 2-19 (inferred)) [compound 129]

— patent US20260008818A1, “CYCLIC PEPTIDE OR SALT THEREOF, AND USES THEREOF” (FUJIFILM Corporation, priority 2023, published 2026)
